ChEMBL document CHEMBL2062379, “Cleavage mechanism and anti-tumor activity of 3,6-epidioxy-1,10-bisaboladiene isolated from edible wild plants” (Bioorg Med Chem, 2012)
The source made the active and inactive calls. The rule behind the calls is not given here.

Tests used:
Saccharomyces cerevisiae [1] = experiment: Growth restoration activity in cdc2-1 rad9-deficient Saccharomyces cerevisiae assessed as growth zone at 0.05 ug/disc incubated at 37 degC for 6 hrs and 28 degC for 2 days; assay type: functional
HL-60 [2] = experiment: Induction of apoptosis in human HL60 cells assessed as caspase 9 activation at 200 uM after 1 hrs by spectrophotometric analysis; assay type: functional, cell-based
HL-60 [3] = experiment: Induction of apoptosis in human HL60 cells assessed as caspase 3/7 activation at 200 uM after 1 hrs by spectrophotometric analysis; assay type: functional, cell-based
HL-60 [4] = experiment: Cytotoxicity against human HL60 cells after 48 hrs by MTT assay; assay type: functional, cell-based; settings: HL-60, 48 h
[5] = Drug metabolism in buffer at pH 8 after 24 hrs by HPLC analysis in presence of […]; assay type: physicochemical; settings: pH 8, 24 h
HL-60 [6] = experiment: Induction of apoptosis in human HL60 cells assessed as caspase 8 activation at 200 uM after 1 hrs by spectrophotometric analysis; assay type: functional, cell-based
HL-60 [7] = experiment: Cytotoxicity against human HL60 cells after 48 hrs by MTT assay in presence of DFOM; assay type: functional, cell-based; settings: HL-60, 48 h
HL-60 [8] = experiment: Cytotoxicity against human HL60 cells after 48 hrs by MTT assay in absence of DFOM; assay type: functional, cell-based; settings: HL-60, 48 h
Saccharomyces cerevisiae [9] = experiment: Growth restoration activity in cdc2-1 rad9-deficient Saccharomyces cerevisiae assessed as growth zone at 400 ug/disc; assay type: functional, organism-based
MKN-28 = experiment: Growth inhibition of human MKN28 cells; assay type: functional
DU-145 = experiment: Growth inhibition of human DU145 cells; assay type: functional
ACHN = experiment: Growth inhibition of human ACHN cells; assay type: functional
NCI-H23 = experiment: Growth inhibition of human NCI-H23 cells; assay type: functional
MKN-7 = experiment: Growth inhibition of human MKN7 cells; assay type: functional
[10] = Growth inhibition of human RXF631L cells; assay type: functional; settings: RXF 631
St-4 = experiment: Growth inhibition of human St-4 cells; assay type: functional
[11] = Growth inhibition of human MKN1 cells; assay type: functional; settings: MKN-1
OVCAR-5 = experiment: Growth inhibition of human OVCAR5 cells; assay type: functional
HT-29 = experiment: Growth inhibition of human HT-29 cells; assay type: functional
SNB-78 = experiment: Growth inhibition of human SNB78 cells; assay type: functional
LOX IMVI = experiment: Growth inhibition of human LOXIMVI cells; assay type: functional
KM12 = experiment: Growth inhibition of human KM12 cells; assay type: functional
HCT-15 = experiment: Growth inhibition of human HCT15 cells; assay type: functional
HL-60 [12] = experiment: Induction of apoptosis in human HL60 cells assessed as caspase 3/7 activation after 1 to 3 hrs by spectrophotometric analysis; assay type: functional, cell-based
HL-60 [13] = experiment: Induction of apoptosis in human HL60 cells assessed as caspase 9 activation after 1 to 3 hrs by spectrophotometric analysis; assay type: functional, cell-based
OVCAR-8 = experiment: Growth inhibition of human OVCAR8 cells; assay type: functional
[14] = Growth inhibition of human HBC5 cells; assay type: functional
HL-60 [15] = experiment: Ratio of IC50 for human HL60 cells in presence of DFOM to IC50 for human HL60 cells in absence of DFOM; assay type: functional
NCI-H460 = experiment: Growth inhibition of human NCI-H460 cells; assay type: functional
OVCAR-3 = experiment: Growth inhibition of human OVCAR3 cells; assay type: functional
SK-OV-3 = experiment: Growth inhibition of human SKOV3 cells; assay type: functional
OVCAR-4 = experiment: Growth inhibition of human OVCAR4 cells; assay type: functional
HCT-116 = experiment: Growth inhibition of human HCT116 cells; assay type: functional
Saccharomyces cerevisiae [16] = experiment: Growth restoration activity in cdc2-1 rad9-deficient Saccharomyces cerevisiae assessed as growth zone at 12.5 to 400 ug/disc incubated at 37 degC for 6 hrs and 28 degC for 2 days; assay type: functional, organism-based
SNB-75 = experiment: Growth inhibition of human SNB75 cells; assay type: functional
A549 = experiment: Growth inhibition of human A549 cells; assay type: functional
SF-539 = experiment: Growth inhibition of human SF539 cells; assay type: functional
MKN-45 = experiment: Growth inhibition of human MKN45 cells; assay type: functional
MDA-MB-231 = experiment: Growth inhibition of human MDA-MB-231 cells; assay type: functional
NCI-H522 = experiment: Growth inhibition of human NCI-H522 cells; assay type: functional
[17] = Growth inhibition of human BSY1 cells; assay type: functional; settings: BSY-1
HL-60 [18] = experiment: Induction of apoptosis in human HL60 cells assessed as caspase 3/7 activation at 1 uM after 12 hrs by spectrophotometric analysis; assay type: functional, cell-based
SF-268 = experiment: Growth inhibition of human SF268 cells; assay type: functional
DMS-114 = experiment: Growth inhibition of human DMS114 cells; assay type: functional
MCF7 = experiment: Growth inhibition of human MCF7 cells; assay type: functional
SF-295 = experiment: Growth inhibition of human SF295 cells; assay type: functional
HL-60 [19] = experiment: Induction of apoptosis in human HL60 cells assessed as caspase 8 activation after 1 to 3 hrs by spectrophotometric analysis; assay type: functional, cell-based
[20] = Growth inhibition of human HBC4 cells; assay type: functional
MKN-74 = experiment: Growth inhibition of human MKN74 cells; assay type: functional
DMS-273 = experiment: Growth inhibition of human DMS273 cells; assay type: functional
HL-60 [21] = experiment: Induction of apoptosis in human HL60 cells assessed as caspase 9 activation at 1 uM after 12 hrs by spectrophotometric analysis; assay type: functional, cell-based
HCC 2998 = experiment: Growth inhibition of human HCC2998 cells; assay type: functional
NCI-H226 = experiment: Growth inhibition of human NCI-H226 cells; assay type: functional
PC-3 = experiment: Growth inhibition of human PC3 cells; assay type: functional
U-251 = experiment: Growth inhibition of human U251 cells; assay type: functional
HL-60 [22] = experiment: Induction of apoptosis in human HL60 cells assessed as caspase 8 activation at 1 uM after 12 hrs by spectrophotometric analysis; assay type: functional, cell-based
HL-60 [23] = experiment: Cytotoxicity against human HL60 cells at 80 uM after 48 hrs by MTT assay; assay type: functional, cell-based
Saccharomyces cerevisiae [24] = experiment: Growth restoration activity in cdc2-1 rad9-deficient Saccharomyces cerevisiae assessed as growth zone at 5 ug/disc incubated at 37 degC for 6 hrs and 28 degC for 2 days; assay type: functional, organism-based
Saccharomyces cerevisiae [25] = experiment: Growth restoration activity in cdc2-1 rad9-deficient Saccharomyces cerevisiae assessed as growth zone at 10 ug/disc incubated at 37 degC for 6 hrs and 28 degC for 2 days; assay type: functional

COc1c(C)c2c(c(O)c1C/C=C(\C)CCC(=O)O)C(=O)OC2 [MYCOPHENOLIC ACID]
Activity (Saccharomyces cerevisiae [1]): 18.5 mm

CC(C)=CCC[C@@H](C)c1ccc(C)cc1
Activity (HL-60 [2]): Active | Activity (HL-60 [3]): Active | IC50 (HL-60 [4]): 109 µM | Drug metabolism [5]: Not Active | Activity (HL-60 [6]): Active | IC50 (HL-60 [7]): 147 µM | IC50 (HL-60 [8]): 107 µM | Activity (Saccharomyces cerevisiae [9]): inactive

C[C@H]1[C@@H](O)O[C@@H]2O[C@@]3(C)CC[C@H]4[C@H](C)CC[C@@H]1[C@@]24OO3 [ARTENIMOL]
GI50 (MKN-28): 4.57 µM | GI50 (DU-145): 18.6 µM | GI50 (ACHN): 7.08 µM | GI50 (NCI-H23): 6.17 µM | GI50 (MKN-7): 3.02 µM | GI50 [10]: 25.7 µM | GI50 (St-4): 5.37 µM | GI50 [11]: 3.89 µM | GI50 (OVCAR-5): 12.9 µM | GI50 (HT-29): 4.37 µM | GI50 (SNB-78): 8.32 µM | GI50 (LOX IMVI): 3.16 µM | GI50 (KM12): 6.03 µM | GI50 (HCT-15): 0.912 µM | Activity (HL-60 [12]): Dose-dependent effect | Activity (HL-60 [13]): Dose-dependent effect | GI50 (OVCAR-8): 4.17 µM | GI50 [14]: 5.37 µM | Ratio IC50 (HL-60 [15]): >100 | GI50 (NCI-H460): 7.41 µM | GI50 (OVCAR-3): 10.2 µM | GI50 (SK-OV-3): 10.2 µM | IC50 (HL-60 [4]): 0.26 µM | GI50 (OVCAR-4): 12.9 µM | GI50 (HCT-116): 1.35 µM | Activity (Saccharomyces cerevisiae [16]): inactive | GI50 (SNB-75): 11.7 µM | GI50 (A549): 15.5 µM | GI50 (SF-539): 9.77 µM | GI50 (MKN-45): 5.25 µM | GI50 (MDA-MB-231): 19.1 µM | GI50 (NCI-H522): 2.29 µM | GI50 [17]: 11.2 µM | Activity (HL-60 [18]): Active | GI50 (SF-268): 20.9 µM | GI50 (DMS-114): 1.58 µM | GI50 (MCF7): 6.17 µM | GI50 (SF-295): 15.5 µM | Activity (HL-60 [19]): Dose-dependent effect | IC50 (HL-60 [7]): > 20 µM | GI50 [20]: 2.04 µM | GI50 (MKN-74): 3.98 µM | IC50 (HL-60 [8]): 0.18 µM | GI50 (DMS-273): 4.47 µM | Activity (HL-60 [21]): Active | Activity (Saccharomyces cerevisiae [9]): inactive | GI50 (HCC 2998): 14.8 µM | GI50 (NCI-H226): 15.8 µM | GI50 (PC-3): 3.16 µM | GI50 (U-251): 3.31 µM | Activity (HL-60 [22]): Active

CC(C)=CCCC(C)[C@@]12CC[C@]3(C)O[C@@H]3[C@@H]1O2 (relative stereo)
Activity (HL-60 [23]): inactive | Activity (Saccharomyces cerevisiae [24]): inactive

NC(=O)NO [HYDROXYUREA]
Activity (Saccharomyces cerevisiae [25]): 14.3 mm
